# Reference: PMC8881610 (Nature Communications, 2022)
# Legend:
# GLP-1R [1] = molecular target: T1, GLP-1R (Homo sapiens, UniProt P43220, K197A); assay: cAMP accumulation assay, GLP-1R WT, mutant or modified constructs; type: cell-based; settings: HEK-293T, GLP-1R K197A; HEK293T
# T1 construct: Flag; expressed in transfected cells; host or cells: HEK293T
# Experimental: (§1) Human embryonic kidney 293 cells containing SV40 large T-antigen (HEK293T) were cultured in DMEM (Gibco) supplemented with 10% (v/v) fetal bovine serum (FBS, Gibco), 1 mM sodium pyruvate (Gibco) and 100 units/mL penicillin and 100 μg/mL streptomycin at 37 °C in 5% CO2. Chinese hamster ovary (CHO-K1) cells were cultured in F-12 (Gibco) containing 10% FBS, 100 units/mL penicillin and 100 μg/mL streptomycin at 37 °C in 5% CO2. For cAMP and receptor expression assays, HEK293T cells were seeded into 6-well cell culture plates at a density of 7 × 10^5 cells per well. After overnight incubation, cells were transfected with GIPR, GLP-1R or GCGR construct using Lipofectamine 2000 or Lipofectamine 3000 transfection reagent (Invitrogen). For whole-cell binding assay, CHO-K1 cells were seeded into 96-well fibronectin-treated cell culture plates at a density of 3 × 10^4 cells per well. After overnight incubation, cells were transfected with GIPR, GLP-1R or GCGR construct using Lipofectamine 2000 transfection reagent (Invitrogen). Following 24 h culturing, the transfected cells were ready for use. […]
# (§2) For GIPR, GLP-1R and GCGR, multi-targeting agonist stimulated cAMP accumulation was measured by a LANCE Ultra cAMP kit (PerkinElmer). […] Plates were incubated at RT for 1 h and the fluorescence intensity measured at 620 nm and […] by an EnVision multilabel plate reader (PerkinElmer).
# GLP-1R [2] = molecular target: T2, GLP-1R (Homo sapiens, UniProt P43220, R190A); assay: as above; type: cell-based; settings: HEK-293T, GLP-1R R190A; HEK293T
# T2 construct: Flag; expressed in transfected cells; host or cells: HEK293T
# Experimental: as §1, §2
# GCGR = assay: cAMP accumulation assay, GCGR WT, mutant or modified constructs; type: cell-based, human; settings: GCGR triple mutant (Q142A + D195A + R199A) vs WT
# Experimental: as §1, §2
# GIPR = molecular target: T3, GIPR (Homo sapiens, UniProt P48546, E135A); assay: Whole-cell binding assay, competition with 125I-GIP1-42; parameters: acylated tirzepatide to the full-length or modified; Flag; expressed in transfected cells; settings: GIPR E135A, CHO-K1
# T3 sequence (P48546 22-466 E135A): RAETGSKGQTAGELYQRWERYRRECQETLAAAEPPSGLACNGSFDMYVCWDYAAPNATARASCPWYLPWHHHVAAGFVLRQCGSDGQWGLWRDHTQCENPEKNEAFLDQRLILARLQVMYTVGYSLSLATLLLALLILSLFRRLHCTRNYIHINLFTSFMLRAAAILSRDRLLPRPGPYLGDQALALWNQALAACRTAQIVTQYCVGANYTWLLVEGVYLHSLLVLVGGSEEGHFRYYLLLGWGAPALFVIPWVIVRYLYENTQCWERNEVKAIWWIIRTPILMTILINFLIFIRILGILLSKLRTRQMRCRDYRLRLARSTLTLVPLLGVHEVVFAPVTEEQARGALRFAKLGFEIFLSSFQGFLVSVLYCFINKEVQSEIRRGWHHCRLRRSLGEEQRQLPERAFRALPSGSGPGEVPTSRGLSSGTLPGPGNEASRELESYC
# Summary of the method: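 Transiently transfected CHO-K1 cells expressing WT or mutant GIPR were washed in F-12 with 0.1% BSA or 0.1% casein and 33 mM HEPES, then incubated 2 h at 37 °C. After ice-cold PBS washes, cells were lysed and bound radioactivity counted (CPM).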
# T1 sequence (P43220 24-463 K197A): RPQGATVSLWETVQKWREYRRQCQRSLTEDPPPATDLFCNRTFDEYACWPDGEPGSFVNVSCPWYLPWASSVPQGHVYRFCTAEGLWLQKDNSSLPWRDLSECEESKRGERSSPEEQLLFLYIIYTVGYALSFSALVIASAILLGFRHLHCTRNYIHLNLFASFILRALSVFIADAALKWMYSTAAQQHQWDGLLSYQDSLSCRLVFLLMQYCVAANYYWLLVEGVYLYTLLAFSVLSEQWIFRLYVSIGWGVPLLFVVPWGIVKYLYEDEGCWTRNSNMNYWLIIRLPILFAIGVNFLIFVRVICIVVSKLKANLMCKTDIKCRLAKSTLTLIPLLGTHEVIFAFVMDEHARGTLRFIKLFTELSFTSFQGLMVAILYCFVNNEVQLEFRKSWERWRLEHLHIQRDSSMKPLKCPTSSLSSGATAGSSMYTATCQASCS
# T2 sequence (P43220 24-463 R190A): as the sequence (P43220 24-463 K197A) above, with R167A, A174K counted along it
Compound,Emax (GLP-1R [1]) [%],Emax (GLP-1R [2]) [%],reduction of potency (cAMP) by receptor mutation (GCGR) [fold],binding Span (GIPR) [% WT],IC50 (GIPR; read-out: binding pIC50 (converted)) [nM]
CC[C@H](C)[C@H](NC(=O)[C@H](CC(C)C)NC(=O)[C@H](Cc1c[nH]c2ccccc12)NC(=O)[C@H](CCC(N)=O)NC(=O)[C@@H](NC(=O)[C@H](Cc1ccccc1)NC(=O)[C@H](C)NC(=O)[C@H](CCCCNC(=O)COCCOCCNC(=O)COCCOCCNC(=O)CC[C@H](NC(=O)CCCCCCCCCCCCCCCCCCC(=O)O)C(=O)O)NC(=O)[C@H](CCC(N)=O)NC(=O)[C@H](C)NC(=O)[C@@H](NC(=O)[C@H](CCCCN)NC(=O)[C@H](CC(=O)O)NC(=O)[C@H](CC(C)C)NC(=O)C(C)(C)NC(=O)[C@@H](NC(=O)[C@H](CO)NC(=O)[C@H](Cc1ccc(O)cc1)NC(=O)[C@H](CC(=O)O)NC(=O)[C@H](CO)NC(=O)[C@@H](NC(=O)[C@H](Cc1ccccc1)NC(=O)[C@@H](NC(=O)CNC(=O)[C@H](CCC(=O)O)NC(=O)C(C)(C)NC(=O)[C@@H](N)Cc1ccc(O)cc1)[C@@H](C)O)[C@@H](C)O)[C@@H](C)CC)[C@@H](C)CC)C(C)C)C(=O)N[C@@H](C)C(=O)NCC(=O)NCC(=O)N1CCC[C@H]1C(=O)N[C@@H](CO)C(=O)N[C@@H](CO)C(=O)NCC(=O)N[C@@H](C)C(=O)N1CCC[C@H]1C(=O)N1CCC[C@H]1C(=O)N1CCC[C@H]1C(=O)N[C@@H](CO)C(N)=O [Tirzepatide],111 ± 2.77,102 ± 2.41,–,–,–
CCCCCCCCCCCCCCCC(=O)N[C@@H](CCC(=O)NCCCC[C@H](NC(=O)[C@H](CC(=O)O)NC(=O)[C@H](CO)NC(=O)[C@@H](NC(=O)[C@H](Cc1ccccc1)NC(=O)[C@@H](NC(=O)CNC(=O)[C@H](CCC(N)=O)NC(=O)C(C)(C)NC(=O)[C@@H](N)Cc1c[nH]cn1)[C@@H](C)O)[C@@H](C)O)C(=O)N[C@@H](CO)C(=O)N[C@@H](CCCCN)C(=O)N[C@@H](Cc1ccc(O)cc1)C(=O)N[C@@H](CC(C)C)C(=O)N[C@@H](CC(=O)O)C(=O)N[C@@H](CCC(=O)O)C(=O)N[C@@H](CCCNC(=N)N)C(=O)N[C@@H](C)C(=O)N[C@@H](C)C(=O)N[C@@H](CCC(N)=O)C(=O)N[C@@H](CC(=O)O)C(=O)N[C@@H](Cc1ccccc1)C(=O)N[C@H](C(=O)N[C@@H](CCC(N)=O)C(=O)N[C@@H](Cc1c[nH]c2ccccc12)C(=O)N[C@@H](CC(C)C)C(=O)N[C@@H](CC(C)C)C(=O)N[C@@H](CC(=O)O)C(=O)NCC(=O)NCC(=O)N1CCC[C@H]1C(=O)N[C@@H](CO)C(=O)N[C@@H](CO)C(=O)NCC(=O)N[C@@H](C)C(=O)N1CCC[C@H]1C(=O)N1CCC[C@H]1C(=O)N1CCC[C@H]1C(=O)N[C@@H](CO)C(N)=O)C(C)C)C(=O)O [Peptide 20],–,–,93,64.00 ± 2.46,5.62
